Measured values published in patent publication US20220202912A1, “Polypeptides in Preparation of Drugs for Treatment or Prevention of Rheumatoid Arthritis” (priority 2011, published 2022).

How the values were obtained:
[1] = test system: macrophages (PMA-induced U937 cells); assay: Western blot of protein expression in macrophages (PMA-induced U937 cells); type: cell-based, human
Method: 3.1 U937 cells are added to a 6-well plate (1.5×10^5 cells/mL), PMA (25 ng/mL) is used for induction for 48 h, and the cells adhere and differentiate into macrophages. Positive drug Adalimumab (25 μg/mL, 50 μg/mL, 100 μg/mL, 200 μg/mL, 400 μg/mL), Avastin (25 μg/mL, 50 μg/mL) are added, the final concentrations of mPEG-SC20k-HM-3 are 2.25, 4.5, 9.0, 13.5, 18.0, 36 μmol/L, and isovolumetric PBS is added to the blank group and the model group. The cells are incubated in a CO2 incubator at 37° C. for 24 or 48 h. Rat synovial cells are induced with LPS for 24 h and then mPEG-SC20k-HM-3 is administrated to final concentrations of 2.25, 4.5, 9.0, 13.5, 18.0 μmol/L, and the cells are incubated in a CO2 incubator at 37° C. for 48 h.
3.3 A protein extract solution is added at 20 μL/1×10^5 cells, and the cells are pipetted and dispersed, and stand at 4° C. for 30 min to lyse the cells.
3.4 1/4 volume of 5×protein loading buffer is added, and boiling water bath is performed for 5-10 min.
3.5 20 μL of protein sample is taken and 10% SDS-PAGE electrophoresis is performed.
3.6 The protein on the gel is transferred to the PVDF membrane by using a wetting transfer method with a constant current of 100 mA for 1-2.5 h.
3.7 The PVDF membrane is blocked with a blocking solution at room temperature for 2 h.
3.8 The membrane is washed for 3 times with PBST, 5 min each time. A primary antibody is added and the membrane stands at 4° C. overnight or is incubated at 37° C. for 2 h.
3.9 The membrane is washed for 3 times with PBST, 5 min each time. A secondary antibody is added and the membrane is incubated at room temperature for more than 2 h.
3.10 The membrane is exposed in a gel imager using an ECL detection kit.

[2] = test system: CIA transgenic TNF-luc mice; assay: collagen type II-induced arthritis in transgenic TNF-luc mice (swelling, scores, weight); type: in vivo, BALB/c transgenic TNF-luc mice; parameters: key to joint index score / arthritis index score: 0–4 per paw, four paws summed, max 16; details: Adalimumab 8 mg/kg, mPEG-SC20k-HM-3 20 mg/kg; for right ankle swelling changes: CIA TNF-luc mice; for clinical score (Table 32, kg) / arthritis index score / clinical score: CIA chronic model
Method: 8 animals are randomly divided into 4 groups (n=2), a normal group, a model group, a positive drug group and a test group. On day 0, for the primary immunization, mice are hypodermically injected with 50 μL collagen emulsifier (containing CII 100 μg/ mouse) at the tail root of mice for sensitization. On day 0, initial ankle widths, initial foot palm widths and initial toe thicknesses of left and right feet of mice in each group are measured separately.
After day 21, the same dosage of emulsifier is used for second immunization at the tail root. After the symptoms such as redness and swelling of joints appear on the four toes of mice, continuous administration is performed for 15 days. The normal group and the model group are separately hypodermically injected with 0.9% normal saline (0.2 mL/20 g of body weight), once every 2 days, 7 times in total. The positive drug Adalimumab group is hypodermically injected with Adalimumab (8 mg/kg of body weight), once every 15 days, once in total. The test treatment group is hypodermically injected with mPEG-SC20k-HM-3 (20 mg/kg of body weight), once every 2 days, 7 times in total.
Every 2 days, the thickness of the ankle, the width of the foot palm and the thickness of the toes of each group of mice are measured with a vernier caliper.
Swelling degree of left ankle (cm)=swelling thickness of left ankle on day n of the experiment−measured initial thickness of left ankle.
Swelling degree of right ankle (cm)=swelling thickness of right ankle on day n of the experiment−measured initial thickness of right ankle.
The joints of the mouse paw are observed with naked eyes, and the joints are scored every 2 days from day 30. Scoring is performed in terms of level 0 to level 4, 5 levels in total. 0=no erythema or swelling; 1=slight erythema or swelling, with erythema or swelling on one of the front/hind toe joints; 2=erythema or swelling on more than one toe; 3=swelling of paw beneath the ankle or wrist joint; 4=swelling of all paws including the ankle joint. Four paws of the mice are scored separately, and the highest score is 16 points.
After the secondary inflammation appears, systemic scoring is performed every 2 days, and the scoring standards are as follows:
Hind foot: no swelling=0 point, swelling of one hind foot=1 point, swelling of two hind feet=2 points.
Front foot: no swelling=0, swelling of one front foot=1 point, swelling of two front feet=2 points.
Ears: no redness symptoms and nodules=0 point, redness symptoms or nodules of one ear=1 point, red symptoms and nodules of two ears=2 points.
Nose: no swelling=0 point, obvious swelling=1 point.
Tail: no nodule=0 point, nodules=1 point; the highest score is 8 points.

Substance: Adalimumab [reference compound]
- effect on integrin pathway angiogenesis [1]: no inhibitory effect
- left ankle swelling ([2]; 0 d): 0.000 ± 0.000 cm
- right ankle swelling changes ([2]; 0 d, mean ± SD): 0.000 ± 0.000 cm
- clinical score (Table 32, kg) ([2]; 0 d, mean ± SD): 0.000 ± 0.000
- left ankle swelling ([2]; 12 d): 0.006 ± 0.050 cm
- right ankle swelling changes ([2]; 12 d, mean ± SD): 0.010 ± 0.014 cm
- clinical score (Table 32, kg) ([2]; 12 d, mean ± SD): 1.050 ± 0.778
- left ankle swelling ([2]; 15 d): 0.011 ± 0.072 cm
- right ankle swelling changes ([2]; 15 d, mean ± SD): 0.000 ± 0.028 cm
- clinical score (Table 32, kg) ([2]; 15 d, mean ± SD): 0.940 ± 1.047
- left ankle swelling ([2]; 18 d): 0.021 ± 0.058 cm
- right ankle swelling changes ([2]; 18 d, mean ± SD): 0.012 ± 0.011 cm
- clinical score (Table 32, kg) ([2]; 18 d, mean ± SD): 0.455 ± 0.247
- left ankle swelling ([2]; 21 d): 0.001 ± 0.041 cm
- right ankle swelling changes ([2]; 21 d, mean ± SD): 0.007 ± 0.010 cm
- clinical score (Table 32, kg) ([2]; 21 d, mean ± SD): 0.230 ± 0.523
- left ankle swelling ([2]; 24 d): 0.016 ± 0.048 cm
- right ankle swelling changes ([2]; 24 d, mean ± SD): 0.009 ± 0.007 cm
- clinical score (Table 32, kg) ([2]; 24 d, mean ± SD): 0.550 ± 0.212
- left ankle swelling ([2]; 27 d): 0.007 ± 0.049 cm
- right ankle swelling changes ([2]; 27 d, mean ± SD): 0.012 ± 0.017 cm
- clinical score (Table 32, kg) ([2]; 27 d, mean): 1.295
- left ankle swelling ([2]; 30 d): 0.012 cm
- right ankle swelling changes ([2]; 30 d, mean ± SD): 0.008 ± 0.008 cm
- clinical score (Table 32, kg) ([2]; 30 d, mean): 0.975
- arthritis index score ([2]; 30 d, mean ± SD): 5.00 ± 2.83
- clinical score ([2]; 30 d, mean ± SD): 5.00 ± 1.41
- left ankle swelling ([2]; 33 d): 0.011 ± 0.041 cm
- right ankle swelling changes ([2]; 33 d, mean ± SD): 0.011 ± 0.016 cm
- arthritis index score ([2]; 33 d, mean ± SD): 8.00 ± 0.00
- clinical score ([2]; 33 d, mean ± SD): 5.00 ± 0.00
- clinical score (Table 32, kg) ([2]; 33 d, mean ± SD): 1.295 ± 0.177
- left ankle swelling ([2]; 36 d): 0.012 ± 0.042 cm
- right ankle swelling changes ([2]; 36 d, mean ± SD): 0.017 ± 0.007 cm
- arthritis index score ([2]; 36 d, mean ± SD): 8.50 ± 0.71
- clinical score ([2]; 36 d, mean ± SD): 5.00 ± 0.00
- clinical score (Table 32, kg) ([2]; 36 d, mean ± SD): 2.200 ± 0.707
- left ankle swelling ([2]; 39 d): 0.002 ± 0.031 cm
- right ankle swelling changes ([2]; 39 d, mean ± SD): 0.007 ± 0.010 cm
- arthritis index score ([2]; 39 d, mean ± SD): 6.50 ± 0.71
- clinical score ([2]; 39 d, mean ± SD): 5.00 ± 0.00
- clinical score (Table 32, kg) ([2]; 39 d, mean ± SD): 2.187 ± 0.443
- left ankle swelling ([2]; 42 d): 0.003 ± 0.052 cm
- right ankle swelling changes ([2]; 42 d, mean ± SD): 0.012 ± 0.017 cm
- arthritis index score ([2]; 42 d, mean ± SD): 5.50 ± 0.71
- clinical score ([2]; 42 d, mean ± SD): 5.00 ± 0.00
- clinical score (Table 32, kg) ([2]; 42 d, mean ± SD): 2.655 ± 1.082
- left ankle swelling ([2]; 45 d): 0.006 ± 0.051 cm
- right ankle swelling changes ([2]; 45 d, mean ± SD): 0.005 ± 0.021 cm
- arthritis index score ([2]; 45 d, mean ± SD): 5.00 ± 0.00
- clinical score ([2]; 45 d, mean ± SD): 4.00 ± 0.00
- clinical score (Table 32, kg) ([2]; 45 d, mean ± SD): 3.085 ± 1.478
- left ankle swelling ([2]; 48 d): 0.007 ± 0.047 cm
- right ankle swelling changes ([2]; 48 d, mean ± SD): 0.006 ± 0.006 cm
- clinical score (Table 32, kg) ([2]; 48 d, mean): 3.415
- arthritis index score ([2]; 48 d, mean ± SD): 5.00 ± 1.41
- clinical score ([2]; 48 d, mean ± SD): 5.00 ± 0.00
- left ankle swelling ([2]; 51 d): 0.001 cm
- right ankle swelling changes ([2]; 51 d, mean ± SD): 0.004 ± 0.006 cm
- clinical score (Table 32, kg) ([2]; 51 d, mean): 3.835
- arthritis index score ([2]; 51 d, mean ± SD): 4.50 ± 0.71
- clinical score ([2]; 51 d, mean ± SD): 4.50 ± 0.71
